Data set [1] relates to adult stem cells in transwell culture. The data set is described as follows: Exosome production in transwell cultures with exosome inhibitors. The format is cell-based. The note with it: BCI-137 10 μM, GW4869 3.5 μM, added Day 0 and Day 3, NONE = 710. The method, then:
A series of transwell experiments were carried out by placing adult stem cells of a donor subject (i.e., donor cells) in the upper chamber of a transwell assembly while the adult stem cells of a receiver subject (i.e. receiver cells) were placed in the lower chamber. Referring to FIG. 2, the transwell culture 400 comprised an insert 410 having a permeable surface that allows the donor cells to uptake and secrete molecules on the basal and/or apical surfaces of the transwell. The transwell insert 410 comprised a permeable membrane with a 0.4 μm pore size. At least a portion of the donor cell sample 420 was applied to the transwell insert 410 while the receiver cell sample 430 was positioned within the lower compartment of the transwell culture with an appropriate amount of culture media.
(§1) Exosomes were collected and quantified to determine the effects of inhibitors on exosome production while RNA extracted from the exosomes were analyzed to determine exosome depletion and levels of RNA depletion.

For a further data set, the system named is SNORD68. The data set is described as follows: Exosomal RNA (ExoRNA) level, SNORD68, with inhibitors. The note with it: BCI-137 10 μM, GW4869 3.5 μM; NONE = 1. The data set is classed as cell-based. The protocol: as §1
(§2) SNORD68 and SNORD95 are small nucleolar RNAs.

Another data set deals with SNORD95. In words: Exosomal RNA (ExoRNA) level, SNORD95, with inhibitors. The data set is classed as cell-based. The note with it: BCI-137 10 μM, GW4869 3.5 μM; NONE = 1. The protocol: as §1, §2
A further data set relates to miRNAs in exosomes. The data set is described as follows: miRNA depletion in exosomes harvested from the heterochronic culture. The data set is classed as cell-based. The method, then:
as §1, §2

For data set [2], the system named is CD34+ cells. In words: Effect of inhibitor on CD34+ differentiation potential and restoration. The format is cell-based.
Excerpt: as §2

Data set [3] relates to CD34+ cells. The data set is described as follows: Effect of inhibitors on cell function (total cell vitality, CD34+ cell vitality, CD34+ cell expansion). The note with it: inhibitor added to transwell culture.
Procedure: (§3) To the transwell cultures was added either a pharmacological inhibitor of exosome biogenesis GW4869 (3.5 μM) or an inhibitor of exosome packaging BCI-137 (10 μM). […] Inhibitors were added to the transwell cultures upon initial seeding (Day 0) and again at Day 3.
(§4) Further analysis of the effect of the inhibitors on cell function was assessed by determining the total cell vitality, the CD34+ cell vitality and the extent of CD34+ cell expansion.
Data set [4] has as its system CD34+ cells.
Procedure: as §3, §4
The next data set relates to CD34+ stem cell. In words: microRNA nucleofection into mature blood cells: CD34+ clonogenicity (CFU-GM). The format is cell-based, human. The note with it: Table 8 Experiment #1; total 60 nM into mature blood cells; siRNA vehicle = 20, No Treatment = 10. The method, then:
Candidate microRNAs involved in facilitating adoptive cellular restoration therapy were miR-146a, miR-103a, miR-106a and miR-19a. Combinations of candidate microRNAs were nucleofected at a total concentration of 60 nM into mature blood cells using the CD34+ cell human nucleofector kit (Lonza) and the human CD34+ cell protocol, and effect on CD34+ stem cell vitality and clonogenicity were evaluated compared to siRNA vehicle control. Further, the microRNA combination of miR-103a, miR-106b and miR-19a were nucleofected at a total concentration of 90 nM into mature blood cells using the P3 Primary Cell 4D-Nucleofector X Kit (Lonza) and the human T cell high efficiency protocol, and effect on T cell activation and cell-mediated cytotoxicity were evaluated compared to siRNA vehicle control. Additional candidate microRNAs involved in facilitating adoptive cellular restoration therapy identified were miR-1303, miR-7851-3p, miR-223, miR-4497, miR-619-5p and miR-1273f. Combinations of these additional candidate microRNAs were nucleofected at a total concentration of 60 nM into mature blood cells using the CD34+ cell human nucleofector kit (Lonza) and the human CD34+ cell protocol, and effect on CD34+ clonogenicity was evaluated compared to siRNA vehicle control.

Turning to `CC(NS(=O)(=O)c1ccc2[nH]c(=O)c(=O)[nH]c2c1)C(=O)O` (stereo not shown) [BCI-137], the “Exosome Production (# exosomes × 10^8)” value in data set [1] is recorded as 604 # exosomes × 10^8. Moreover, the “Fold Change in ExoRNA SNORD68” value in the data set with SNORD68 is 0.24 Fold Change. The “Fold Change in ExoRNA SNORD95” value in the data set with SNORD95 is 0.33 Fold Change. The “depletion of miRNAs in exosomes” value with miRNAs in exosomes was “effectively depleted miRNAs”. For the same molecule, the “restorative effects of adoptive cell restoration” value in the data set with CD34+ cells [2] (inhibition by BCI-137) is recorded as “blocked the restorative effects”. In the data set with CD34+ cells [2] (inhibition with BCI-137), the “differentiation in CD34+ heterochronic cells” value is on record as “decreased” and the “differentiation potential in the CD34+ mature cells” value is listed as “increased”. Further, in the data set with CD34+ cells [3], the “effect on the juvenile or mature cell health” value is “no effect”.
With `O=C(/C=C/c1ccc(/C=C/C(=O)Nc2ccc(C3=NCCN3)cc2)cc1)Nc1ccc(C2=NCCN2)cc1` [GW4869], the “Exosome Production (# exosomes × 10^8)” value in data set [1] is 558 # exosomes × 10^8. Moreover, the “Fold Change in ExoRNA SNORD68” value with SNORD68 is reported as 0.43 Fold Change. The “Fold Change in ExoRNA SNORD95” value with SNORD95 was 0.67 Fold Change. In the data set with miRNAs in exosomes, the “depletion of miRNAs in exosomes” value is recorded as “effectively depleted miRNAs”. Also, the “toxicity to CD34+ cells” value in the data set on CD34+ cells [4] is listed as “appeared toxic”.
On to “miR-223: isolated microRNA miR-223-5p (SEQ ID NO:5) (CGUGUAUUUGACAAGCUGAGUU; listed as RNA, chemistry not given here; listed as Homo sapiens)”, for which the “CD34+ Differentiation (# CFU-GM)” value in the data set on CD34+ stem cell was 10 # CFU-GM.
As to “miR-619-5p: isolated microRNA miR-619-5p (SEQ ID NO:8) (GCUGGGAUUACAGGCAUGAGCC; listed as RNA, chemistry not given here; listed as Homo sapiens)”, the “CD34+ Differentiation (# CFU-GM)” value in the data set on CD34+ stem cell is reported as 46 # CFU-GM.
Consider “miR-1273f: isolated microRNA miR-1273f (SEQ ID NO:9) (GGAGAUGGAGGUUGCAGUG; listed as RNA, chemistry not given here; listed as Homo sapiens)”, for which the “CD34+ Differentiation (# CFU-GM)” value with CD34+ stem cell is on record as 9 # CFU-GM.
Same read-out and setting: the value for “miR-1303: isolated microRNA miR-1303 (SEQ ID NO:7) (UUUAGAGACGGGGUCUUGCUCU; listed as RNA, chemistry not given here; listed as Homo sapiens)” was 32 # CFU-GM; that for “miR-4497: isolated microRNA miR-4497 (SEQ ID NO:6) (CUCCGGGACGGCUGGGC; listed as RNA, chemistry not given here; listed as Homo sapiens)” was 20 # CFU-GM.
As to “miR-7851-3p: isolated microRNA miR-7851-3p (SEQ ID NO:10) (UACCUGGGAGACUGAGGUUGGA; listed as RNA, chemistry not given here; listed as Homo sapiens)”, the “CD34+ Differentiation (# CFU-GM)” value with CD34+ stem cell is listed as 14 # CFU-GM.

The record behind these values is patent US11203754B2, “Microrna compositions and methods of making and using same” (Advanced ReGen Medical Technologies, LLC, priority 2016, dated 2021).
